Experimental data as given in PMC10619133, “The catechol moiety of obafluorin is essential for antibacterial activity” (RSC Chemical Biology, 2023).
Converted amounts (≈) assume the structure as drawn. Like-named read-outs stand apart in the source and are kept apart here.

How the values were obtained:
[1] = Hydrolysis of the β-lactone in HEPES buffer monitored by HPLC; assay type: physicochemical; conditions: for hydrolysis of β-lactone (in words): 30 min, no Fe^3+
Protocol: Hydrolysis of 1–4 was analysed on an Agilent 1290 system fitted with an Agilent LC/MSD MS spectrometer. A Kinetex XB-C18, 100 × 4.6 mm, 5 μM column (Phenomenex) was used with a gradient elution: ACN/0.1% (v/v) FA (H2O) gradient from 5/95 for 0–0.5 min, 5/95 to 98/2 0.5–12 min, 98/2 for 12–13 min, gradient to 5/95 13–13.5 min and 5/95 for 13.5–15 min. The flow rate was 0.6 mL min^−1 and the injection volume of each sample 5 μL. DAD signals were analysed at 270 nm, with a bandwidth of 4 nm. MS were recorded in positive mode using an atmospheric pressure ionisation electrospray (API-ES) ion source with a capillary voltage of 3000 V. The drying gas temperature was 350 °C with a flow rate of 12 L min^−1. The scan parameters were: mass range = 200–1500; fragmentor = 70; gain EMV = 1.0; threshold = 150; step-size = 0.10. Data were analysed with Agilent ChemStation software.
Five solutions of HEPES buffer (111 mM) were prepared at pH 6.0, 6.5, 7.0, 7.5 and 8.0 respectively. A further five solution of HEPES buffer (111 mM) with Fe(NO3)3.9H2O ([…]) were also prepared at pH 6.0, 6.5, 7.0, 7.5, 8.0 respectively. Stock solutions of 1–4 (10 mM) were prepared in DMSO. For each hydrolysis experiment, stock solution of 1–4 (10 μL) was added the HEPES buffer (90 μL) or the HEPES + Fe(NO3)3.9H2O buffer (90 μL), to give final concentrations of HEPES (100 mM), 1–4 (1 mM) and Fe^3+ (0 or 1 mM). The reaction mixtures were shaken using a bench top vortex and left to stand for 30 min, after which the samples were analysed by HPLC using the Analytical HPLC method. All stock solutions of 1–4 were tested at every pH, with and without Fe^3+ and all experiments were repeated in triplicate.

MRSA = experiment: Spot-on-lawn MIC bioassay; assay type: cell-based, Methicillin-resistant Staphylococcus aureus; conditions: for MIC: Staphylococcus aureus, MRSA, read-out: MIC
Protocol: Indicator strains were grown for 16–18 h in LB (5 mL) by inoculation from a single colony. An aliquot of the resulting culture (500 μL) was then used to inoculate LB (50 mL in 250 mL Erlenmeyer flasks), followed by orbital shaking at 250 rpm until they reached an OD600 of 0.3–0.4. These cultures were then diluted 1 : 10 with molten soft nutrient agar (SNA), before pouring into appropriately sized Petri dishes to set. Serial dilutions of the test compounds (from 256 μg mL^−1 to 1 μg mL^−1 plus an additional sample at 1000 μg mL^−1) were prepared in acetonitrile (ACN), and 4 μL of each sample was applied directly onto the SNA surface. Kanamycin (50 μg mL^−1), apramycin (50 μg mL^−1) or aureobasidin A (0.2 μg mL^−1) were used as positive controls, as appropriate, and ACN or water (4 μL) were used as negative controls. […] Experiments were carried out in at least triplicate for each strain.
The method was the same as for the antibacterial MIC assays described above, with the following modifications: for excess iron, Fe(NO3)3·9H2O stock (400 mM) was added to give a final concentration of 1.5 or 2.0 mM; for iron depletion, bipy stock (1 M) was added to give a final concentration of 150 μM. For MRSA, 1 was further diluted to 0.5 0.25 and 0.125 μg mL^−1 due to a decrease in MIC under excess iron conditions. The general effect of excess iron on the activity of alternative antibiotics was determined by performing a similar serial dilution of carbenicillin, kanamycin, streptomycin, nitrofurantoin and chloramphenicol in the presence of Fe^3+.

In the case of O=C(N[C@@H]1C(=O)O[C@@H]1Cc1ccc([N+](=O)[O-])cc1)c1cccc(O)c1O [compound 1, Obafluorin], the “effect of added Fe^3+ on hydrolysis (in words)” value ([1]; Fe^3+ 1 mM, HEPES 100 mM, pH 6.0–8.0, 30 min) is reported as “protected 1 against hydrolysis at all pH values”, the “hydrolysis of β-lactone (in words)” value ([1]; pH 6.0, HEPES 100 mM) is reported as “little change” and the “hydrolysis of β-lactone (in words)” value ([1]; pH 8.0, HEPES 100 mM) is reported as “majority of 1 in the hydrolysed form”. The MIC (MRSA; +Fe^3+ (2 mM) in the media) was 0.25 µg/mL (≈ 0.698 µM), the MIC (MRSA; spot-on-lawn, standard conditions) was 2 µg/mL (≈ 5.58 µM) and the “decrease in MIC with added Fe^3+” value (MRSA; with vs without Fe^3+ in growth agar) was 8 fold.
